Source: US20260273073A1, “TRANSDUCIN BETA-LIKE PROTEIN 1 DEGRADERS” (Ohio State Innovation Foundation, priority 2023, published 2026)
Where two headings read alike, the source gives them in different places.

Columns and labels:
Type in all cases: cell-based
[1] = tested on: Granta-519; assay: PROTAC compounds evaluated against lymphoma cell line Granta-519; conditions: Granta-519 lymphoma cell line
Protocol: (§1) A library of PROTAC compounds was prepared according to the sequences depicted in FIGS. 1 and 2. These compounds were evaluated against three different lymphoma cell lines (Riva, Pfeiffer, and Granta-519): […]

[2] = tested on: Riva; assay: PROTAC compounds evaluated against lymphoma cell line Riva
Protocol: as §1

[3] = tested on: Pfeiffer; assay: PROTAC compounds evaluated against lymphoma cell line Pfeiffer
Protocol: as §1

**Q.** For `CC1CC(C)CN(S(=O)(=O)c2ccc3c(c2)C(=NO)c2cc(S(=O)(=O)N4CC(C)CC(C)C4)ccc2C3=NOCCCNC(=O)CCOCCNc2cccc3c2C(=O)N(C2CCC(=O)NC2=O)C3=O)C1` (stereo not drawn) [RY-3-129], which IC50 [1] is on record?
**A.** The IC50 was 1040 nM.

**Q.** And the IC50 [2]?
**A.** The IC50 was 1350 nM.

**Q.** What about the IC50 [3] of the same compound?
**A.** Its IC50 is 554 nM.

**Q.** Which IC50 [1] does the source give for `CC1CC(C)CN(S(=O)(=O)c2ccc3c(c2)C(=NO)c2cc(S(=O)(=O)N4CCN(C(=O)CCOCCNc5cccc6c5C(=O)N(C5CCC(=O)NC5=O)C6=O)CC4)ccc2C3=NO)C1` (stereo not drawn) [RY-3-122] here?
**A.** The IC50 was over 20000 nM.

**Q.** And the IC50 [2]?
**A.** Its IC50 is over 20000 nM.

**Q.** What about the IC50 [3] of the same compound?
**A.** Its IC50 is over 20000 nM.

**Q.** `CC1CC(C)CN(S(=O)(=O)c2ccc3c(c2)C(=NO)c2cc(S(=O)(=O)N4CCN(C(=O)CCOCCOCCOCCNc5cccc6c5C(=O)N(C5CCC(=O)NC5=O)C6=O)CC4)ccc2C3=NO)C1` (stereo not drawn) [RY-3-123] was tested. Which IC50 [1] did it give?
**A.** Its IC50 is over 20000 nM.

**Q.** And the IC50 [2]?
**A.** Its IC50 is over 20000 nM.

**Q.** And the IC50 [3]?
**A.** Its IC50 is over 20000 nM.

**Q.** Which IC50 [1] does the source give for `CC1CC(C)CN(S(=O)(=O)c2ccc3c(c2)C(=NO)c2cc(S(=O)(=O)N4CCN(C(=O)CCCCNc5cccc6c5C(=O)N(C5CCC(=O)NC5=O)C6=O)CC4)ccc2C3=NO)C1` (stereo not drawn) [RY-3-120] here?
**A.** Its IC50 is 496 nM.

**Q.** What about the IC50 [2] of the same compound?
**A.** The IC50 was 560 nM.

**Q.** What about the IC50 [3] of the same compound?
**A.** Its IC50 is 647 nM.

**Q.** What does the source list for `CC1CC(C)CN(S(=O)(=O)c2ccc3c(c2)C(=NO)c2cc(S(=O)(=O)N4CCN(C(=O)CCCCCCCCCCNc5cccc6c5C(=O)N(C5CCC(=O)NC5=O)C6=O)CC4)ccc2C3=NO)C1` (stereo not drawn) [RY-3-121]?
**A.** IC50 [1]: 1160 nM; IC50 [2]: 1160 nM; IC50 [3]: 2500 nM

**Q.** Which IC50 [1] does the source give for `CC1CC(C)CN(S(=O)(=O)c2ccc3c(c2)C(=NO)c2cc(S(=O)(=O)N4CC(C)CC(C)C4)ccc2C3=NOCCCNC(=O)CCCCCCNc2cccc3c2C(=O)N(C2CCC(=O)NC2=O)C3=O)C1` (stereo not drawn) [RY-3-130] here?
**A.** The IC50 was 530 nM.

**Q.** What about the IC50 [2] of the same compound?
**A.** The IC50 was 929 nM.

**Q.** What about the IC50 [3] of the same compound?
**A.** Its IC50 is 355 nM.

**Q.** How did the IC50 [1] turn out when `CC1CC(C)CN(S(=O)(=O)c2ccc3c(c2)C(=NO)c2cc(S(=O)(=O)N4CCN(C(=O)CCCCCCNc5cccc6c5C(=O)N(C5CCC(=O)NC5=O)C6=O)CC4)ccc2C3=NO)C1` (stereo not drawn) [RY-3-108] was run?
**A.** Its IC50 is 439 nM.

**Q.** And the IC50 [2]?
**A.** Its IC50 is 605 nM.

**Q.** What about the IC50 [3] of the same compound?
**A.** The IC50 was 343 nM.

**Q.** What does the source list for `CC1CC(C)CN(S(=O)(=O)c2ccc3c(c2)C(=NO)c2cc(S(=O)(=O)N4CC(C)CC(C)C4)ccc2C3=NOCCCNC(=O)CCNc2cccc3c2C(=O)N(C2CCC(=O)NC2=O)C3=O)C1` (stereo not drawn) [RY-3-127]?
**A.** IC50 [1]: 323 nM; IC50 [2]: 651 nM; IC50 [3]: 189 nM

**Q.** `CC1CC(C)CN(S(=O)(=O)c2ccc3c(c2)C(=NO)c2cc(S(=O)(=O)N4CCN(C(=O)CCNc5cccc6c5C(=O)N(C5CCC(=O)NC5=O)C6=O)CC4)ccc2C3=NO)C1` (stereo not drawn) [RY-3-119] was tested. Which IC50 [1] did it give?
**A.** Its IC50 is 399 nM.

**Q.** And the IC50 [2]?
**A.** Its IC50 is 797 nM.

**Q.** And the IC50 [3]?
**A.** Its IC50 is 564 nM.

**Q.** For `CC1CC(C)CN(S(=O)(=O)c2ccc3c(c2)C(=NO)c2cc(S(=O)(=O)N4CC(C)CC(C)C4)ccc2C3=NOCCCNC(=O)CCOCCOCCOCCNc2cccc3c2C(=O)N(C2CCC(=O)NC2=O)C3=O)C1` (stereo not drawn) [RY-3-132], which IC50 [1] is on record?
**A.** Its IC50 is over 20000 nM.

**Q.** What about the IC50 [2] of the same compound?
**A.** Its IC50 is over 20000 nM.

**Q.** And the IC50 [3]?
**A.** Its IC50 is over 20000 nM.

**Q.** How did the IC50 [1] turn out when `CC1CC(C)CN(S(=O)(=O)c2ccc3c(c2)C(=NO)c2cc(S(=O)(=O)N4CC(C)CC(C)C4)ccc2C3=NOCCCNC(=O)CCCCCCCCCCNc2cccc3c2C(=O)N(C2CCC(=O)NC2=O)C3=O)C1` (stereo not drawn) [RY-3-124] was run?
**A.** The IC50 was over 20000 nM.

**Q.** And the IC50 [2]?
**A.** The IC50 was over 20000 nM.

**Q.** And the IC50 [3]?
**A.** Its IC50 is over 20000 nM.

**Q.** `CC1CC(C)CN(S(=O)(=O)c2ccc3c(c2)C(=NO)c2cc(S(=O)(=O)N4CC(C)CC(C)C4)ccc2C3=NOCCCNC(=O)CCOCCOCCNc2cccc3c2C(=O)N(C2CCC(=O)NC2=O)C3=O)C1` (stereo not drawn) [RY-3-131] was tested. Which IC50 [1] did it give?
**A.** The IC50 was over 20000 nM.

**Q.** What about the IC50 [2] of the same compound?
**A.** The IC50 was over 20000 nM.

**Q.** And the IC50 [3]?
**A.** Its IC50 is 1880 nM.

**Q.** Which IC50 ([1]; Homo sapiens) does the source give for `C[C@@H]1C[C@H](C)CN(S(=O)(=O)c2ccc3c(c2)C(=NO)c2cc(S(=O)(=O)N4C[C@H](C)C[C@H](C)C4)ccc2C3=NO)C1` [Tegavivint, tegavivint, reference compound] here?
**A.** Its IC50 is 94 nM.

**Q.** What about the IC50 [2] of the same compound?
**A.** The IC50 was 86 nM.

**Q.** And the IC50 ([3]; Homo sapiens)?
**A.** Its IC50 is 175 nM.

**Q.** With `CC1CC(C)CN(S(=O)(=O)c2ccc3c(c2)C(=NO)c2cc(S(=O)(=O)N4CCN(C(=O)CCOCCOCCNc5cccc6c5C(=O)N(C5CCC(=O)NC5=O)C6=O)CC4)ccc2C3=NO)C1` (stereo not drawn) [RY-3-113] as the compound, how does the IC50 [1] read?
**A.** The IC50 was over 20000 nM.

**Q.** And the IC50 [2]?
**A.** The IC50 was over 20000 nM.

**Q.** What about the IC50 [3] of the same compound?
**A.** The IC50 was over 20000 nM.

**Q.** Which IC50 [1] does the source give for `CC1CC(C)CN(S(=O)(=O)c2ccc3c(c2)C(=NO)c2cc(S(=O)(=O)N4CC(C)CC(C)C4)ccc2C3=NOCCCNC(=O)CCCCNc2cccc3c2C(=O)N(C2CCC(=O)NC2=O)C3=O)C1` (stereo not drawn) [RY-3-128] here?
**A.** The IC50 was 523 nM.

**Q.** And the IC50 [2]?
**A.** The IC50 was 795 nM.

**Q.** What about the IC50 [3] of the same compound?
**A.** Its IC50 is 398 nM.
